≈ marks a conversion by molar mass, not a printed value. Where two headings read alike, the source gives them in different places. Numbered stars: 1 amine (or outer) side, 2 acyl side, 3 side chain; on linkers, the order of the positions; unused ones are H or OH. Bridge positions count the residues as written; N and C are the ends. Side chains are listed from the residue outwards. Peptide text beside a SMILES is read from it. * marks the point of attachment. C20 diacid = O=C(O)CCCCCCCCCCCCCCCCCCC(=O)*; γGlu = O=C(O)[C@H](CCC(=O)[*:2])N[*:1]
Experiments:
[1] = ASSAY (IV) determination of solubility; assay type: physicochemical
Summary of the method: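 Polypeptide in water at […] mixed 1:1 with 100 mM buffers of pH 3.0-8.0 (glycylglycine pH 3-5, bistrispropane pH 6-8). Held 18 h at room temperature, then centrifuged; concentration remaining in solution measured by UPLC.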

rat calcitonin receptor = molecular target: T1, rat calcitonin receptor (Rattus norvegicus, UniProt P32214); assay: ASSAY (VIII) binding to the rat calcitonin receptor; conditions: Table 7, read-out: rCTR bind IC50
T1 construct: expressed in transfected cells; host or cells: BHK tk'ts 13 (transient, FuGENE 6), membranes
T1 sequence (P32214 25-479 isoform P32214-2 limits assumed): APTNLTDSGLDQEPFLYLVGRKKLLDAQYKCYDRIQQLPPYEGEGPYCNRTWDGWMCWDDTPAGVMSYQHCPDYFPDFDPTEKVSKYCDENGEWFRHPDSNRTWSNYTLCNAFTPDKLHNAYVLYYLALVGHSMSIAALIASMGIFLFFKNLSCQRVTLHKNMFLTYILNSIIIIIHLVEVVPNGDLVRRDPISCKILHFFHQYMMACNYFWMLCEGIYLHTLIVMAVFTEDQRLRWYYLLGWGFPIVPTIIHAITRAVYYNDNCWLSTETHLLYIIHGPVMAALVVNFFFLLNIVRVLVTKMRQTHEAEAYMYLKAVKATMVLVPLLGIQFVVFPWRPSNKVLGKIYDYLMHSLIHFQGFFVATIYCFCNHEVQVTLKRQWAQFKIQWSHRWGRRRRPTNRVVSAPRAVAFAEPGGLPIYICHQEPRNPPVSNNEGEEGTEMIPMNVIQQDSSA
Summary of the method: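 Membranes were prepared from BHK tk′ts 13 cells transiently transfected with rat calcitonin receptor. Cells were grown in DMEM with 10% FBS and harvested approximately 48 hours after transfection.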

[2] = bistrispropane buffer, pH 6.5, read-out: Solubility pH 6.5 Concentration
[3] = bistrispropane buffer, pH 7.5, read-out: Solubility pH 7.5 Concentration
[4] = bistrispropane buffer, pH 6.0, read-out: Solubility pH 6.0 Concentration
[5] = bistrispropane buffer, pH 7.0, read-out: Solubility pH 7.0 Concentration
[6] = bistrispropane buffer, pH 8.0, read-out: Solubility pH 8.0 Concentration
[7] = glycylglycine buffer, pH 3.0, read-out: Solubility pH 3.0 Concentration
[8] = glycylglycine buffer, pH 4.0, read-out: Solubility pH 4.0 Concentration
[9] = glycylglycine buffer, pH 5.0, read-out: Solubility pH 5.0 Concentration

SMILES: CC[C@H](C)[C@H](NC(=O)[C@H](C)NC(=O)CNC(=O)[C@H](Cc1ccccc1)NC(=O)[C@H](CC(N)=O)NC(=O)[C@@H]1CCCN1C(=O)[C@H](CO)NC(=O)[C@H](CO)NC(=O)[C@H](Cc1c[nH]cn1)NC(=O)[C@H](CCCNC(=N)N)NC(=O)[C@H](CC(C)C)NC(=O)[C@H](Cc1ccccc1)NC(=O)[C@H](Cc1c[nH]cn1)NC(=O)[C@H](C)NC(=O)[C@H](CC(C)C)NC(=O)[C@H](CCCNC(=N)N)NC(=O)[C@H](CCC(N)=O)NC(=O)[C@@H](NC(=O)[C@H](C)NC(=O)[C@@H]1CSSC[C@H](NC(=O)[C@H](CCCNC(=N)N)NC(=O)CNC(=O)CC[C@H](NC(=O)CCCCCCCCCCCCCCCCCCC(=O)O)C(=O)O)C(=O)N[C@@H](CC(N)=O)C(=O)N[C@@H]([C@@H](C)O)C(=O)N[C@@H](C)C(=O)N[C@@H]([C@@H](C)O)C(=O)N1)[C@@H](C)O)C(=O)N1CCC[C@H]1C(=O)N[C@@H](CO)C(=O)N[C@@H](CO)C(=O)N[C@H](C(=O)N[C@@H](CC(N)=O)C(=O)N[C@H](C(=O)NCC(=O)N1CCC[C@H]1C(=O)N[C@@H](CC(N)=O)C(=O)N[C@H](C(=O)N[C@@H](Cc1ccc(O)cc1)C(N)=O)[C@@H](C)O)C(C)C)[C@@H](C)O [Example 102] ({C20 diacid-γGlu}-GRCNTATCATQRLAHFLRHSSPNFGAIPSSTNVGPNTY-NH2; disulfide 3-8 (inferred))
- solubility at 18 h [1, 2]: ≥ 200 µM
- solubility at 18 h [1, 3]: 88 µM (≈ 396 µg/mL)
- solubility at 18 h [1, 4]: ≥ 200 µM
- solubility at 18 h [1, 5]: 154 µM (≈ 693 µg/mL)
- solubility at 18 h [1, 6]: 113 µM (≈ 508 µg/mL)
- solubility at 18 h [1, 7]: ≥ 200 µM
- solubility at 18 h [1, 8]: 197 µM (≈ 886 µg/mL)
- solubility at 18 h [1, 9]: 195 µM (≈ 877 µg/mL)
- IC50 (rat calcitonin receptor): 65.9 nM

SMILES: CC[C@H](C)[C@H](NC(=O)[C@H](C)NC(=O)CNC(=O)[C@H](Cc1ccccc1)NC(=O)[C@H](CC(N)=O)NC(=O)[C@@H]1CCCN1C(=O)[C@H](CO)NC(=O)[C@H](CO)NC(=O)[C@H](Cc1c[nH]cn1)NC(=O)[C@H](CCCNC(=N)N)NC(=O)[C@H](CC(C)C)NC(=O)[C@H](Cc1ccccc1)NC(=O)[C@H](C)NC(=O)[C@H](C)NC(=O)[C@H](CC(C)C)NC(=O)[C@H](CCCNC(=N)N)NC(=O)[C@H](CCC(N)=O)NC(=O)[C@@H](NC(=O)[C@H](C)NC(=O)[C@@H]1CSSC[C@H](NC(=O)[C@H](CCCNC(=N)N)NC(=O)CNC(=O)CC[C@H](NC(=O)CCCCCCCCCCCCCCCCCCC(=O)O)C(=O)O)C(=O)N[C@@H](CC(N)=O)C(=O)N[C@@H]([C@@H](C)O)C(=O)N[C@@H](C)C(=O)N[C@@H]([C@@H](C)O)C(=O)N1)[C@@H](C)O)C(=O)N1CCC[C@H]1C(=O)N[C@@H](CO)C(=O)N[C@@H](CO)C(=O)N[C@H](C(=O)N[C@@H](CC(N)=O)C(=O)N[C@H](C(=O)NCC(=O)N1CCC[C@H]1C(=O)N[C@@H](CC(N)=O)C(=O)N[C@H](C(=O)N[C@@H](Cc1ccc(O)cc1)C(N)=O)[C@@H](C)O)C(C)C)[C@@H](C)O [Example 103] ({C20 diacid-γGlu}-GRCNTATCATQRLAAFLRHSSPNFGAIPSSTNVGPNTY-NH2; disulfide 3-8)
- solubility at 18 h ([1]; pH 3.0, read-out: Solubility pH 3.0 Concentration): ≥ 200 µM
- solubility at 18 h ([1]; pH 4.0, read-out: Solubility pH 4.0 Concentration): ≥ 200 µM
- solubility at 18 h ([1]; pH 5.0, read-out: Solubility pH 5.0 Concentration): ≥ 200 µM
- solubility at 18 h ([1]; pH 6.0, read-out: Solubility pH 6.0 Concentration): ≥ 200 µM
- solubility at 18 h ([1]; pH 6.5, read-out: Solubility pH 6.5 Concentration): ≥ 200 µM
- solubility at 18 h ([1]; pH 7.0, read-out: Solubility pH 7.0 Concentration): ≥ 200 µM
- solubility at 18 h ([1]; pH 7.5, read-out: Solubility pH 7.5 Concentration): 141 µM (≈ 625 µg/mL)
- solubility at 18 h ([1]; pH 8.0, read-out: Solubility pH 8.0 Concentration): 194 µM (≈ 860 µg/mL)
- IC50 (rat calcitonin receptor): 56.3 nM

SMILES: CC[C@H](C)[C@H](NC(=O)[C@H](C)NC(=O)CNC(=O)[C@H](Cc1ccccc1)NC(=O)[C@H](CC(N)=O)NC(=O)[C@@H]1CCCN1C(=O)[C@H](CO)NC(=O)[C@H](CO)NC(=O)[C@H](Cc1c[nH]cn1)NC(=O)[C@H](CCCNC(=N)N)NC(=O)[C@H](CC(C)C)NC(=O)[C@H](Cc1ccccc1)NC(=O)[C@H](CCC(=O)O)NC(=O)[C@H](C)NC(=O)[C@H](CC(C)C)NC(=O)[C@H](CCCNC(=N)N)NC(=O)[C@H](CCC(N)=O)NC(=O)[C@@H](NC(=O)[C@H](C)NC(=O)[C@@H]1CSSC[C@H](NC(=O)[C@@H](N)CCCCNC(=O)CC[C@H](NC(=O)CC[C@H](NC(=O)CCCCCCCCCCCCCCCCCCC(=O)O)C(=O)O)C(=O)O)C(=O)N[C@@H](CC(N)=O)C(=O)N[C@@H]([C@@H](C)O)C(=O)N[C@@H](C)C(=O)N[C@@H]([C@@H](C)O)C(=O)N1)[C@@H](C)O)C(=O)N1CCC[C@H]1C(=O)N[C@@H](CO)C(=O)N[C@@H](CO)C(=O)N[C@H](C(=O)N[C@@H](CC(N)=O)C(=O)N[C@H](C(=O)NCC(=O)N[C@@H](CCCNC(=N)N)C(=O)N[C@@H](CCC(=O)O)C(=O)N[C@H](C(=O)N[C@@H](Cc1ccc(O)cc1)C(N)=O)[C@@H](C)O)C(C)C)[C@@H](C)O [Example 105] (H-K([γGlu-γGlu-C20 diacid])CNTATCATQRLAEFLRHSSPNFGAIPSSTNVGRETY-NH2; disulfide 2-7; N-terminus assumed)
- solubility at 18 h [1, 2]: ≥ 200 µM
- solubility at 18 h [1, 3]: ≥ 200 µM
- solubility at 18 h [1, 4]: ≥ 200 µM
- solubility at 18 h [1, 5]: ≥ 200 µM
- solubility at 18 h [1, 6]: ≥ 200 µM
- solubility at 18 h [1, 7]: ≥ 200 µM
- solubility at 18 h [1, 8]: ≥ 200 µM
- solubility at 18 h [1, 9]: ≥ 200 µM
- IC50 (rat calcitonin receptor): 452 nM

SMILES: CC[C@H](C)[C@H](NC(=O)[C@H](C)NC(=O)CNC(=O)[C@H](Cc1ccccc1)NC(=O)[C@H](CC(N)=O)NC(=O)[C@@H]1CCCN1C(=O)[C@H](CO)NC(=O)[C@H](CO)NC(=O)[C@H](Cc1c[nH]cn1)NC(=O)[C@H](CCCNC(=N)N)NC(=O)[C@H](CC(C)C)NC(=O)[C@H](Cc1ccccc1)NC(=O)[C@H](CCC(=O)O)NC(=O)[C@H](C)NC(=O)[C@H](CC(C)C)NC(=O)[C@H](CCCNC(=N)N)NC(=O)[C@H](CCC(N)=O)NC(=O)[C@@H](NC(=O)[C@H](C)NC(=O)[C@@H]1CSSC[C@H](NC(=O)[C@@H](N)CCCCNC(=O)CC[C@H](NC(=O)CCCCCCCCCCCCCCCCCCC(=O)O)C(=O)O)C(=O)N[C@@H](CC(N)=O)C(=O)N[C@@H]([C@@H](C)O)C(=O)N[C@@H](C)C(=O)N[C@@H]([C@@H](C)O)C(=O)N1)[C@@H](C)O)C(=O)N1CCC[C@H]1C(=O)N[C@@H](CO)C(=O)N[C@@H](CO)C(=O)N[C@H](C(=O)N[C@@H](CC(N)=O)C(=O)N[C@H](C(=O)NCC(=O)N[C@@H](Cc1c[nH]cn1)C(=O)N[C@@H](CCC(=O)O)C(=O)N[C@H](C(=O)N[C@@H](Cc1ccc(O)cc1)C(N)=O)[C@@H](C)O)C(C)C)[C@@H](C)O [Example 107] (H-K([γGlu-C20 diacid])CNTATCATQRLAEFLRHSSPNFGAIPSSTNVGHETY-NH2; disulfide 2-7 (inferred))
- solubility at 18 h [1, 2]: ≥ 200 µM
- solubility at 18 h [1, 3]: ≥ 200 µM
- solubility at 18 h [1, 4]: ≥ 200 µM
- solubility at 18 h [1, 5]: ≥ 200 µM
- solubility at 18 h [1, 6]: ≥ 200 µM
- solubility at 18 h [1, 7]: ≥ 200 µM
- solubility at 18 h [1, 8]: ≥ 200 µM
- solubility at 18 h [1, 9]: ≥ 200 µM
- IC50 (rat calcitonin receptor): 33.1 nM

SMILES: CC[C@H](C)[C@H](NC(=O)[C@H](C)NC(=O)CNC(=O)[C@H](Cc1ccccc1)NC(=O)[C@H](CC(N)=O)NC(=O)[C@@H]1CCCN1C(=O)[C@H](CO)NC(=O)[C@H](CO)NC(=O)[C@H](Cc1c[nH]cn1)NC(=O)[C@H](CCCNC(=N)N)NC(=O)[C@H](CC(C)C)NC(=O)[C@H](Cc1ccccc1)NC(=O)[C@H](CC(N)=O)NC(=O)[C@H](C)NC(=O)[C@H](CC(C)C)NC(=O)[C@H](CCCNC(=N)N)NC(=O)[C@H](CCC(N)=O)NC(=O)[C@@H](NC(=O)[C@H](C)NC(=O)[C@@H]1CSSC[C@H](NC(=O)[C@@H](N)CCCCNC(=O)CC[C@H](NC(=O)CCCCCCCCCCCCC(=O)O)C(=O)O)C(=O)N[C@@H](CC(N)=O)C(=O)N[C@@H]([C@@H](C)O)C(=O)N[C@@H](C)C(=O)N[C@@H]([C@@H](C)O)C(=O)N1)[C@@H](C)O)C(=O)N1CCC[C@H]1C(=O)N[C@@H](CO)C(=O)N[C@@H](CO)C(=O)N[C@H](C(=O)N[C@@H](CC(N)=O)C(=O)N[C@H](C(=O)NCC(=O)N[C@@H](Cc1c[nH]cn1)C(=O)N[C@@H](CC(N)=O)C(=O)N[C@H](C(=O)N[C@@H](Cc1ccc(O)cc1)C(N)=O)[C@@H](C)O)C(C)C)[C@@H](C)O [Example 112]
- solubility at 18 h [1, 2]: ≥ 200 µM
- solubility at 18 h [1, 3]: ≥ 200 µM
- solubility at 18 h [1, 4]: ≥ 200 µM
- solubility at 18 h [1, 5]: ≥ 200 µM
- solubility at 18 h [1, 6]: ≥ 200 µM
- solubility at 18 h [1, 7]: ≥ 200 µM
- solubility at 18 h [1, 8]: ≥ 200 µM
- solubility at 18 h [1, 9]: ≥ 200 µM
- IC50 (rat calcitonin receptor): 707 nM
